Laboratory results as given in US8173633B2, “Protein kinase C activity enhancer containing alkyl ether derivative or salt thereof” (Toyama Chemical Co., Ltd., priority 2006, dated 2012).

Biological target: T1, PKCε (Rattus norvegicus, UniProt P09216)
T1 construct: The cerebral cortex was removed from 18-day fetuses of Wistar/ST rats; endogenous in cells; host or cells: primary cultured cerebral cortex cells from 18-day fetuses of Wistar/ST rats
T1 sequence (P09216 1-737): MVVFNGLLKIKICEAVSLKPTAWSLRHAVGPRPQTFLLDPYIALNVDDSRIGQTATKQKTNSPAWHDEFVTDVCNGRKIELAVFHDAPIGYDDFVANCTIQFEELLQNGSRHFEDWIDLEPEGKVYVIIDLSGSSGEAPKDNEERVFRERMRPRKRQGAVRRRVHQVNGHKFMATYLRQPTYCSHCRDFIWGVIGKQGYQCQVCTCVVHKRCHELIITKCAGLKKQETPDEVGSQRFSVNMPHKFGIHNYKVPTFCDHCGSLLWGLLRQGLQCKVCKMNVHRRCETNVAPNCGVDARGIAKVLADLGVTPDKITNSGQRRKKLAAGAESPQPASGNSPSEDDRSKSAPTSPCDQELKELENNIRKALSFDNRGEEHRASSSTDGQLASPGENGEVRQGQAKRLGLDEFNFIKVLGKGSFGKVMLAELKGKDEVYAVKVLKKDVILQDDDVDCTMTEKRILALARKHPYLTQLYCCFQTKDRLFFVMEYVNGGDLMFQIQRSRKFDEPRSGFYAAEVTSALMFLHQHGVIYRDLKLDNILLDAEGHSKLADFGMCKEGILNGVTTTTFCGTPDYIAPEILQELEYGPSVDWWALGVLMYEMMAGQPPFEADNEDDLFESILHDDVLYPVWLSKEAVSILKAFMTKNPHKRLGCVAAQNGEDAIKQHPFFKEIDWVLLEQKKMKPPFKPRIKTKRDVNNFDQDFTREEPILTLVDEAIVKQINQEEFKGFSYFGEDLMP
Assay: PKC activity enhancing effect in cultured cells (PKCε migration from cytosol to membrane fraction, western blotting)
Assay type: cell-based, Wistar/ST rats
Details: cultured fetal rat cerebral cortex cells, 0.1 μmol/L in terms of T-817, FIG. 1
Protocol: The PKC activity was determined, according to the method of Etcheberrigaray et al. (Proceedings of the National Academy of Sciences of the United States of America, 2004, Vol. 101, No. 30, p. 11141-11146), as applicable. At the time of activation, PKC migrates from the cytoplasm to membranes. The PKC level in the membrane fraction over that in the cytosol fraction was taken as the index of PKC activation. In this experiment, the activity of PKCε, a known isoform of PKC, was measured.
Cultured cells were prepared following the method of Hirata et al. (J. Pharmacol. Exp. Ther., 2005, Vol. 314, No. 1, p. 252-259). […]
On Day 8 from the start of the culturing, T-817MA was added to the cells to a final concentration of 0.1 μmol/L, in terms of T-817, After this addition, the cells were washed with PBS at 0 (untreated), 1, 2 and 4 hours. […] The protein concentration in the cytosol fraction and the membrane fraction was measured, and the protein content in each sample was adjusted to a certain constant level with the extraction buffer or the extraction buffer containing Triton X-100, These samples were then diluted with electrophoresis buffer containing mercaptoethanol (manufactured by Wako Pure Chemical Industries Ltd.) and SDS-PAGE (40 mA, 30 minutes) was carried on 10% polyacrylamide gel. […]

O=C(O)/C=C\C(=O)O.OC1CN(CCCOCCc2ccc3sccc3c2)C1 [T-817MA]
PKCε migration from the cytoplasm to membranes (index of PKC activation) (2 hours after treatment): migrated from the cytoplasm to membranes
PKCε migration from the cytoplasm to membranes (index of PKC activation) (4 hours after treatment): migrated from the cytoplasm to membranes
